Source: ChEMBL document CHEMBL4507256 (2021)

Columns and labels:
[1] = molecular target: Phosphorylase b kinase regulatory subunit alpha, liver isoform (Homo sapiens) (UniProt P46019); conditions: Compound concentration 1000.0 nM
[2] = molecular target: Ephrin type-A receptor 7 (Homo sapiens) (UniProt Q15375); conditions: Compound concentration 1000.0 nM
[3] = molecular target: Mitogen-activated protein kinase 7 (Homo sapiens) (UniProt Q13164); conditions: Compound concentration 1000.0 nM
[4] = molecular target: Phosphatidylinositol 4-kinase beta (Homo sapiens) (UniProt Q9UBF8); conditions: Compound concentration 1000.0 nM
Chain of Phosphatidylinositol 4-kinase beta (Homo sapiens) (Q9UBF8 2-816 limits assumed): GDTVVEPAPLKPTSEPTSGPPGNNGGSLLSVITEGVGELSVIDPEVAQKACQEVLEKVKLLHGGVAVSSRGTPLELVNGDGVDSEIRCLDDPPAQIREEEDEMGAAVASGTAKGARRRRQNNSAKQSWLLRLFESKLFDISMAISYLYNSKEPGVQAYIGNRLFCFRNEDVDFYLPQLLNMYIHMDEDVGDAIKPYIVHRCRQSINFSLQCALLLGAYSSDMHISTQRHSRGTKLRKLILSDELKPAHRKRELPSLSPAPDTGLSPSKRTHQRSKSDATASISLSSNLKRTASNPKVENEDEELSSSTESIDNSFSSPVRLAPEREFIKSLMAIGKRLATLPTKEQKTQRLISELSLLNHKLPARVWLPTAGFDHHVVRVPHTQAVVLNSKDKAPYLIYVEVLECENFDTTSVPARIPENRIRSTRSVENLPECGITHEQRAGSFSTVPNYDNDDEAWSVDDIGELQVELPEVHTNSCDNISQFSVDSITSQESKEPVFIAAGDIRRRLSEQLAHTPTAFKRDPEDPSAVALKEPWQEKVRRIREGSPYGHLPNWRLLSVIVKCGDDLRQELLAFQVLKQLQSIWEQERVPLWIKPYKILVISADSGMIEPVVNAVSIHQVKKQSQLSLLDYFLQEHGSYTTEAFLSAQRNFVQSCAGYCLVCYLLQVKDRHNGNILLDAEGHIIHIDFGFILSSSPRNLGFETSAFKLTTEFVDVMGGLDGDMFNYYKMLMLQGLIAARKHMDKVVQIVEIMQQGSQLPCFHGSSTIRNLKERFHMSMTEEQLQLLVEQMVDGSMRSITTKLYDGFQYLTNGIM

[5] = molecular target: Myosin-IIIb (Homo sapiens) (UniProt Q8WXR4); conditions: Compound concentration 1000.0 nM
[6] = molecular target: Glycogen synthase kinase-3 alpha (Homo sapiens) (UniProt P49840); conditions: Compound concentration 1000.0 nM
Chain of Glycogen synthase kinase-3 alpha (Homo sapiens) (P49840 2-483 limits assumed): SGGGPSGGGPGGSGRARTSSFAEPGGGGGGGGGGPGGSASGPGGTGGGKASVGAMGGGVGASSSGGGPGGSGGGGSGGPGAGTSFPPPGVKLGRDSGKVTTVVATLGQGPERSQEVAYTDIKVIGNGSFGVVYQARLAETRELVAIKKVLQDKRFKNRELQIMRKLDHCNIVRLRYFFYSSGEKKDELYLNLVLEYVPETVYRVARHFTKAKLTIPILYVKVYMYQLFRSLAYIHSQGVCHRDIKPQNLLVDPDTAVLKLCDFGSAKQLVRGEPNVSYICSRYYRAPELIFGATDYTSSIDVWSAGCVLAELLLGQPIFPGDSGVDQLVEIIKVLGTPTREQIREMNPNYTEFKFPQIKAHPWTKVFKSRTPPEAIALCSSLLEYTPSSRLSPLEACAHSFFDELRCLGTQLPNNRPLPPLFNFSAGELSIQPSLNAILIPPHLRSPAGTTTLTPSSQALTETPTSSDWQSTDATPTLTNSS

[7] = molecular target: Dual specificity mitogen-activated protein kinase kinase 1 (Homo sapiens) (UniProt Q02750); conditions: Compound concentration 1000.0 nM
[8] = molecular target: Serine/threonine-protein kinase NIM1 (Homo sapiens) (UniProt Q8IY84); conditions: Compound concentration 1000.0 nM
[9] = molecular target: Tyrosine-protein kinase ITK/TSK (Homo sapiens) (UniProt Q08881); conditions: Compound concentration 1000.0 nM
Chain of Tyrosine-protein kinase ITK/TSK (Homo sapiens) (Q08881 whole entry): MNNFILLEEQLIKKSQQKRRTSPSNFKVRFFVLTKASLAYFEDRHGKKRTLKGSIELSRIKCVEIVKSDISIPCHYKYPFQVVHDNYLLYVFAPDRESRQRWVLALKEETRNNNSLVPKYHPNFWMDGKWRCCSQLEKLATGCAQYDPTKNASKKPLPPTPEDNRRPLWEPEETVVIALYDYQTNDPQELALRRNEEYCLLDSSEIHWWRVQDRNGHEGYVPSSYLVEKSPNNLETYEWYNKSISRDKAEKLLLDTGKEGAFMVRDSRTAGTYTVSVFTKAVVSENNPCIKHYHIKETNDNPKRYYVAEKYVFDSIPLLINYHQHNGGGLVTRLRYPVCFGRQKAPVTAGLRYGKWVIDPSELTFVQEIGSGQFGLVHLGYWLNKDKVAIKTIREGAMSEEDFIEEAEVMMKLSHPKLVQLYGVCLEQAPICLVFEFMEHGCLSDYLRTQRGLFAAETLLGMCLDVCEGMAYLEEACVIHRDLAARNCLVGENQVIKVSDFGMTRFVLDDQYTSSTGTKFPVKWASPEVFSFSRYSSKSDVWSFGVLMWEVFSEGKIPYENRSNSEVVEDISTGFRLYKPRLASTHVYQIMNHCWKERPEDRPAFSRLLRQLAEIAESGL

[10] = tested on: Hepatocyte growth factor receptor (Homo sapiens), P08581 [Y1235D]; conditions: Compound concentration 1000.0 nM
[11] = molecular target: Tyrosine-protein kinase JAK1 (Homo sapiens) (UniProt P23458); conditions: Compound concentration 1000.0 nM
[12] = molecular target: Mitogen-activated protein kinase kinase kinase 3 (Homo sapiens) (UniProt Q99759); conditions: Compound concentration 1000.0 nM
[13] = molecular target: MAP/microtubule affinity-regulating kinase 4 (Homo sapiens) (UniProt Q96L34); conditions: Compound concentration 1000.0 nM
[14] = molecular target: AP2-associated protein kinase 1 (Homo sapiens) (UniProt Q2M2I8); conditions: Compound concentration 1000.0 nM
[15] = molecular target: Serine/threonine-protein kinase pim-3 (Homo sapiens) (UniProt Q86V86); conditions: Compound concentration 1000.0 nM
[16] = molecular target: Casein kinase I isoform gamma-2 (Homo sapiens) (UniProt P78368); conditions: Compound concentration 1000.0 nM
[17] = molecular target: Phosphatidylinositol 5-phosphate 4-kinase type-2 gamma (Homo sapiens) (UniProt Q8TBX8); conditions: Compound concentration 1000.0 nM
[18] = tested on: Tyrosine-protein kinase ABL1 (Homo sapiens), P00519 [Q252H]; conditions: Compound concentration 1000.0 nM
[19] = molecular target: Fibroblast growth factor receptor 2 (Homo sapiens) (UniProt P21802); conditions: Compound concentration 1000.0 nM
[20] = molecular target: Serine/threonine-protein kinase RIO3 (Homo sapiens) (UniProt O14730); conditions: Compound concentration 1000.0 nM
[21] = molecular target: G protein-coupled receptor kinase 3 (Homo sapiens) (UniProt P35626); conditions: Compound concentration 1000.0 nM
[22] = molecular target: Ephrin type-A receptor 3 (Homo sapiens) (UniProt P29320); conditions: Compound concentration 1000.0 nM
Chain of Ephrin type-A receptor 3 (Homo sapiens) (P29320 whole entry, canonical isoform): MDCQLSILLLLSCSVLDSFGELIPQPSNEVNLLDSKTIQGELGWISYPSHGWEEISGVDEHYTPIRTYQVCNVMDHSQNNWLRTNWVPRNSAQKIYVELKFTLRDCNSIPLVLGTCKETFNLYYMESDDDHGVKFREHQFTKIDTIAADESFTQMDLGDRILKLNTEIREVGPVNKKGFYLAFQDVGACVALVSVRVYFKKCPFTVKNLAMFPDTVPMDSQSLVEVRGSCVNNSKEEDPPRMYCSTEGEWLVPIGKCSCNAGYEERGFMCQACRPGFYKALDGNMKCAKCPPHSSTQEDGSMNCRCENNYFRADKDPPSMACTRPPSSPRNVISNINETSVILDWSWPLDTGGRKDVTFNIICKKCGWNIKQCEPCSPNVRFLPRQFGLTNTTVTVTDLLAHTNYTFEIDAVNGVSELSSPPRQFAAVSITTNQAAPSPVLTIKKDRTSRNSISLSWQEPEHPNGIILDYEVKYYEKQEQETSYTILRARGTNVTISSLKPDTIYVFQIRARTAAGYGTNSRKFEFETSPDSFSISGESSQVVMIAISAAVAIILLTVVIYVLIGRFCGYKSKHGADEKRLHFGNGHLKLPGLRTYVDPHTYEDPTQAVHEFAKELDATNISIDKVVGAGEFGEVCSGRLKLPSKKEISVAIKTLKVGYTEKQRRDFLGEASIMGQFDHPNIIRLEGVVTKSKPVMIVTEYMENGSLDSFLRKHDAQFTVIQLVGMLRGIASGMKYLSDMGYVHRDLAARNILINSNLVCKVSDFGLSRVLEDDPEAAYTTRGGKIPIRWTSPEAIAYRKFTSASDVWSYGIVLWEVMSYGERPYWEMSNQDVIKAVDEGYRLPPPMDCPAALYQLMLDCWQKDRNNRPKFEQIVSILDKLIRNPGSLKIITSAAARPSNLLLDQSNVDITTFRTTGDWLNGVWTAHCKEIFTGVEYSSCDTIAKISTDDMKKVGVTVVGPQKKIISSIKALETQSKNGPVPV

[23] = molecular target: Phosphatidylinositol 4,5-bisphosphate 3-kinase catalytic subunit delta isoform (Homo sapiens) (UniProt O00329); conditions: Compound concentration 1000.0 nM
[24] = molecular target: D(1A) dopamine receptor (Homo sapiens) (UniProt P21728); conditions: Compound concentration 10.0 uM
[25] = molecular target: Mitogen-activated protein kinase 15 (Homo sapiens) (UniProt Q8TD08); conditions: Compound concentration 1000.0 nM
[26] = molecular target: Tyrosine-protein kinase HCK (Homo sapiens) (UniProt P08631); conditions: Compound concentration 1000.0 nM
[27] = molecular target: Muscarinic acetylcholine receptor M3 (Homo sapiens) (UniProt P20309); conditions: Compound concentration 10.0 uM
[28] = molecular target: Receptor-interacting serine/threonine-protein kinase 2 (Homo sapiens) (UniProt O43353); conditions: Compound concentration 1000.0 nM
[29] = tested on: Tyrosine-protein kinase ABL1 (Homo sapiens), P00519 [H396P]; conditions: Compound concentration 1000.0 nM
[30] = molecular target: Serine/threonine-protein kinase Sgk2 (Homo sapiens) (UniProt Q9HBY8); conditions: Compound concentration 1000.0 nM
[31] = molecular target: Atypical kinase COQ8A, mitochondrial (Homo sapiens) (UniProt Q8NI60); conditions: Compound concentration 1000.0 nM
Chain of Atypical kinase COQ8A, mitochondrial (Homo sapiens) (Q8NI60 163-647 limits assumed): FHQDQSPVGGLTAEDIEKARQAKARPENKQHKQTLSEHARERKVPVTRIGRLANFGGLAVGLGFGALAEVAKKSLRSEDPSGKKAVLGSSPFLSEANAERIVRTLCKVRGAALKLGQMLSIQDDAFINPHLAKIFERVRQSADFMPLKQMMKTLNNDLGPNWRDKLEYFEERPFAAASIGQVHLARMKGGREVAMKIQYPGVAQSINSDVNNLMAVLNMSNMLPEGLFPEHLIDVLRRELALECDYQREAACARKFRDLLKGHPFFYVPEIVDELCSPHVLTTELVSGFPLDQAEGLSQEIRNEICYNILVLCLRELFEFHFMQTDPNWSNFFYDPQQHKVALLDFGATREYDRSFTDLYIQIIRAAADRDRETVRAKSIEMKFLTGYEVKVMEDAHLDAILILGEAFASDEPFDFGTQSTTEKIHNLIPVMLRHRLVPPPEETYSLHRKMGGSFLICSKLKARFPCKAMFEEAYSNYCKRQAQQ

[32] = molecular target: Tyrosine-protein kinase Fgr (Homo sapiens) (UniProt P09769); conditions: Compound concentration 1000.0 nM
[33] = tested on: Tyrosine-protein kinase ABL1 (Homo sapiens), P00519 [F317L]; conditions: Compound concentration 1000.0 nM
[34] = molecular target: Membrane-associated tyrosine- and threonine-specific cdc2-inhibitory kinase (Homo sapiens) (UniProt Q99640); conditions: Compound concentration 1000.0 nM
[35] = molecular target: Interleukin-1 receptor-associated kinase 3 (Homo sapiens) (UniProt Q9Y616); conditions: Compound concentration 1000.0 nM
[36] = molecular target: Proto-oncogene tyrosine-protein kinase Src (Homo sapiens) (UniProt P12931); conditions: Compound concentration 1000.0 nM
[37] = molecular target: Protein kinase C delta type (Homo sapiens) (UniProt Q05655); conditions: Compound concentration 1000.0 nM
[38] = molecular target: Dual serine/threonine and tyrosine protein kinase (Homo sapiens) (UniProt Q6XUX3); conditions: Compound concentration 1000.0 nM
[39] = molecular target: Ephrin type-A receptor 6 (Homo sapiens) (UniProt Q9UF33); conditions: Compound concentration 1000.0 nM
[40] = molecular target: Serine/threonine-protein kinase Nek3 (Homo sapiens) (UniProt P51956); conditions: Compound concentration 1000.0 nM
[41] = molecular target: Serine/threonine-protein kinase tousled-like 1 (Homo sapiens) (UniProt Q9UKI8); conditions: Compound concentration 1000.0 nM
[42] = molecular target: Tyrosine-protein kinase FRK (Homo sapiens) (UniProt P42685); conditions: Compound concentration 1000.0 nM
[43] = molecular target: MAP kinase-activated protein kinase 5 (Homo sapiens) (UniProt Q8IW41); conditions: Compound concentration 1000.0 nM
[44] = molecular target: TGF-beta receptor type-2 (Homo sapiens) (UniProt P37173); conditions: Compound concentration 1000.0 nM
[45] = molecular target: Serine/threonine-protein kinase OSR1 (Homo sapiens) (UniProt O95747); conditions: Compound concentration 1000.0 nM
Chain of Serine/threonine-protein kinase OSR1 (Homo sapiens) (O95747 2-527 limits assumed): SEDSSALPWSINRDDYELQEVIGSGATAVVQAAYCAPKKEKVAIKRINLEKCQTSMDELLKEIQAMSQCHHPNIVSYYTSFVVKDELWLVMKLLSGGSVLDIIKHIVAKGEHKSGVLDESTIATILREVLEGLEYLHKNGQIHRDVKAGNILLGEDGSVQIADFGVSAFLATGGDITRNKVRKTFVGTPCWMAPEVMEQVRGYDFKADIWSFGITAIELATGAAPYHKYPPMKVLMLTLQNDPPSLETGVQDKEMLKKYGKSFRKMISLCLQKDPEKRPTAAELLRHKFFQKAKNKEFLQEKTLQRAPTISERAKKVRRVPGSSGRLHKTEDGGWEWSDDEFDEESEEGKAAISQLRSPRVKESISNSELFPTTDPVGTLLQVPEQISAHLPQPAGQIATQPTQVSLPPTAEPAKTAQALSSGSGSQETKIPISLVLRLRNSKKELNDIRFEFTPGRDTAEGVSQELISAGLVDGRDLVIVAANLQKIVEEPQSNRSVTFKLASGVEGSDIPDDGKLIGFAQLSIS

Chain of Ephrin type-A receptor 7 (Homo sapiens) (Q15375 28-998 limits assumed): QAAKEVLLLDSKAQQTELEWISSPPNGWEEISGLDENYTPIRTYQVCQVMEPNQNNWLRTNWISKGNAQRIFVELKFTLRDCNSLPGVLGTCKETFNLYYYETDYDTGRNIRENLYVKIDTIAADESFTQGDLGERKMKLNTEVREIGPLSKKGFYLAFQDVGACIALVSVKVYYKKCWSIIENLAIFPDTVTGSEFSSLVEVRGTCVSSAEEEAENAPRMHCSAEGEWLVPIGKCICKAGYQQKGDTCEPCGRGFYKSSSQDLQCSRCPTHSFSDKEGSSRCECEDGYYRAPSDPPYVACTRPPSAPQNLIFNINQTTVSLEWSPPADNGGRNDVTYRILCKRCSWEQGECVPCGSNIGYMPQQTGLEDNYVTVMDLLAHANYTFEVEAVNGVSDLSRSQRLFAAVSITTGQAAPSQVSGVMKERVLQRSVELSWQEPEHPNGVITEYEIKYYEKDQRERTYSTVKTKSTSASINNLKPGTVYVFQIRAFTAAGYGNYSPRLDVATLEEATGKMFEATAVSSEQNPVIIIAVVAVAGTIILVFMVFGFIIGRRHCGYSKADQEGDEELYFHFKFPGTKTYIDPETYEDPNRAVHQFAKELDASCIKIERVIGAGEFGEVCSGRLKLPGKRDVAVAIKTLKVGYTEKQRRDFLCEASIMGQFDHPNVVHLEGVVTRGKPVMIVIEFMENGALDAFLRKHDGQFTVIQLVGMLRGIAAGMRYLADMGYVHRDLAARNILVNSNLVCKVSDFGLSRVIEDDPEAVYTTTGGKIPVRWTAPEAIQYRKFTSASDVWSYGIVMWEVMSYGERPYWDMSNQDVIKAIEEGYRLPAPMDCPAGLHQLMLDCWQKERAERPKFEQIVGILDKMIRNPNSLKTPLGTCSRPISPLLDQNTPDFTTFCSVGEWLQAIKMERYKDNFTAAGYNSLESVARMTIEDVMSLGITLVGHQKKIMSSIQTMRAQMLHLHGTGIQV

CCC(=N\O)/C(C)=C/c1ccc(F)c(C)c1 [A-226]
inactive: residual activity [1] 100% | residual activity [2] 92% | residual activity [3] 100% | residual activity [4] 100% | residual activity [5] 67% | residual activity [6] 100% | residual activity [7] 95% | residual activity [8] 100% | residual activity [9] 91% | residual activity [10] 100% | residual activity [11] 100% | residual activity [12] 100% | residual activity [13] 88% | residual activity [14] 98% | residual activity [15] 80% | residual activity [16] 100% | residual activity [17] 85% | residual activity [18] 100% | residual activity [19] 100% | residual activity [20] 100% | residual activity [21] 100% | residual activity [22] 99% | residual activity [23] 100% | inhibition [24] -0.91% | residual activity [25] 100% | residual activity [26] 80% | inhibition [27] -5.75% | residual activity [28] 65% | residual activity [29] 100% | residual activity [30] 100% | residual activity [31] 91% | residual activity [32] 86% | residual activity [33] 100% | residual activity [34] 61% | residual activity [35] 94% | residual activity [36] 98% | residual activity [37] 98% | residual activity [38] 95% | residual activity [39] 100% | residual activity [40] 100% | residual activity [41] 100% | residual activity [42] 80% | residual activity [43] 100% | residual activity [44] 97% | residual activity [45] 100%

CCC(=N\O)/C(C)=C/c1ccc(F)cc1 [A-079]
inactive: residual activity [1] 90% | residual activity [2] 86% | residual activity [3] 88% | residual activity [4] 50% | residual activity [5] 100% | residual activity [6] 100% | residual activity [7] 95% | residual activity [8] 94% | residual activity [9] 90% | residual activity [10] 85% | residual activity [11] 96% | residual activity [12] 86% | residual activity [13] 100% | residual activity [14] 89% | residual activity [15] 96% | residual activity [16] 87% | residual activity [17] 83% | residual activity [18] 69% | residual activity [19] 93% | residual activity [20] 78% | residual activity [21] 92% | residual activity [22] 100% | residual activity [23] 72% | inhibition [24] 13.4% | residual activity [25] 95% | residual activity [26] 100% | inhibition [27] -6.83% | residual activity [28] 91% | residual activity [29] 100% | residual activity [30] 78% | residual activity [31] 78% | residual activity [32] 67% | residual activity [33] 81% | residual activity [34] 100% | residual activity [35] 100% | residual activity [36] 91% | residual activity [37] 100% | residual activity [38] 66% | residual activity [39] 67% | residual activity [40] 100% | residual activity [41] 100% | residual activity [42] 100% | residual activity [43] 91% | residual activity [44] 74% | residual activity [45] 80%
